PubChem BioAssay AID2060484 (Molecular Pharmacology Branch, DTP, NCI, 2025)

Tested on: SUM149PT spheroids with HUVEC/MSC, viability
Test: Anticancer human tumor SUM149PT cell line growth inhibition [GQUAD];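 also: spheroids exposed to drugs for seven days before readout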;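 as to viability, T/C: percent viability relative to DMSO vehicle control taken as 100%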
Conditions: for IC50: curve of first compound; for viability, T/C: stronger effect = lower value
Outline: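 Tumor cells were grown as complex spheroids with HUVEC endothelial cells and mesenchymal stem cells as stroma. G-quadruplex stabilizers were combined with targeted agents over half-log dilutions from near the clinical Cmax, or from 10 microM.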

[1] = second compound 0.0316 µM, first compound 0.0316 µM
[2] = second compound 0.0316 µM, first compound 0.1 µM
[3] = second compound 0.0316 µM, first compound 0.316 µM
[4] = second compound 0.0316 µM, first compound 1 µM
[5] = second compound 0.0316 µM, first compound 3.16 µM
[6] = second compound 0.0316 µM, first compound 10 µM
[7] = second compound 0.1 µM, first compound 0.0316 µM
[8] = second compound 0.1 µM, first compound 0.1 µM
[9] = second compound 0.1 µM, first compound 0.316 µM
[10] = second compound 0.1 µM, first compound 1 µM
[11] = second compound 0.1 µM, first compound 3.16 µM
[12] = second compound 0.1 µM, first compound 10 µM
[13] = second compound 0.316 µM, first compound 0.0316 µM
[14] = second compound 0.316 µM, first compound 0.1 µM
[15] = second compound 0.316 µM, first compound 0.316 µM
[16] = second compound 0.316 µM, first compound 1 µM
[17] = second compound 0.316 µM, first compound 3.16 µM
[18] = second compound 0.316 µM, first compound 10 µM
[19] = second compound 1 µM, first compound 0.0316 µM
[20] = second compound 1 µM, first compound 0.1 µM
[21] = second compound 1 µM, first compound 0.316 µM
[22] = second compound 1 µM, first compound 1 µM
[23] = second compound 1 µM, first compound 3.16 µM
[24] = second compound 1 µM, first compound 10 µM
[25] = second compound 3.16 µM, first compound 0.0316 µM
[26] = second compound 3.16 µM, first compound 0.1 µM
[27] = second compound 3.16 µM, first compound 0.316 µM
[28] = second compound 3.16 µM, first compound 1 µM
[29] = second compound 3.16 µM, first compound 3.16 µM
[30] = second compound 3.16 µM, first compound 10 µM
[31] = second compound 10 µM, first compound 0.0316 µM
[32] = second compound 10 µM, first compound 0.1 µM
[33] = second compound 10 µM, first compound 0.316 µM
[34] = second compound 10 µM, first compound 1 µM
[35] = second compound 10 µM, first compound 3.16 µM
[36] = second compound 10 µM, first compound 10 µM

For CC(C)(O)C1CCC(Nc2ccc3ncc(-c4cccc(C(F)(F)F)c4)n3n2)CC1 (stereo not drawn) + Cc1cnc(CNC(=O)c2c(=O)c3ccc(N4CCCN(C)CC4)nc3n3c2sc2ccccc23)cn1, the IC50 (second compound 0.0316 µM) was 1090 nM, the IC50 (second compound 0.1 µM) was 685 nM and the IC50 (second compound 0.316 µM) was 349 nM. For the same compound, the IC50 (second compound 1 µM) was under 31.6 nM, the IC50 (second compound 3.16 µM) was under 31.6 nM and the IC50 (second compound 10 µM) was under 31.6 nM. It also gave a viability, T/C [1] of 72.8%, a viability, T/C [2] of 69.2% and a viability, T/C [3] of 58.2%. For the same compound, the viability, T/C [4] was 57%, the viability, T/C [5] was 32.6% and the viability, T/C [6] was 29.5%. For the same compound, the viability, T/C [7] was 57.3%, the viability, T/C [8] was 63% and the viability, T/C [9] was 67%. The viability, T/C [10] was 43.9%, the viability, T/C [11] was 26.2% and the viability, T/C [12] was 24.3%. For the same compound, the viability, T/C [13] was 52.9%, the viability, T/C [14] was 50.8% and the viability, T/C [15] was 47.9%. It also gave a viability, T/C [16] of 44.6%, a viability, T/C [17] of 22.5% and a viability, T/C [18] of 25.8%. The viability, T/C [19] was 43.7%, the viability, T/C [20] was 43.6% and the viability, T/C [21] was 37.9%. For the same compound, the viability, T/C [22] was 37.3%, the viability, T/C [23] was 18.9% and the viability, T/C [24] was 17.4%. The viability, T/C [25] was 32.9%, the viability, T/C [26] was 34.7% and the viability, T/C [27] was 32.5%. The viability, T/C [28] was 32.1%, the viability, T/C [29] was 18.5% and the viability, T/C [30] was 1.21%. The viability, T/C [31] was 0.27%, the viability, T/C [32] was 2.83% and the viability, T/C [33] was 2.02%. It also gave a viability, T/C [34] of 1.99%, a viability, T/C [35] of 2.14% and a viability, T/C [36] of 1.18%.

With CC(C)n1c(=O)n(C)c2cnc3cc(F)c(-c4ccc(OCCCN5CCCCC5)nc4)cc3c21 + Cc1cnc(CNC(=O)c2c(=O)c3ccc(N4CCCN(C)CC4)nc3n3c2sc2ccccc23)cn1 the IC50 (second compound 0.0316 µM) was over 10000 nM, the IC50 (second compound 0.1 µM) was over 10000 nM and the IC50 (second compound 0.316 µM) was 3880 nM. The IC50 (second compound 1 µM) was under 31.6 nM, the IC50 (second compound 3.16 µM) was under 31.6 nM and the IC50 (second compound 10 µM) was under 31.6 nM. For the same compound, the viability, T/C [1] was 56.4%, the viability, T/C [2] was 51.5% and the viability, T/C [3] was 55.8%. For the same compound, the viability, T/C [4] was 59%, the viability, T/C [5] was 59.9% and the viability, T/C [6] was 48.9%. It also gave a viability, T/C [7] of 55%, a viability, T/C [8] of 55.5% and a viability, T/C [9] of 52.6%. The viability, T/C [10] was 60.2%, the viability, T/C [11] was 64.7% and the viability, T/C [12] was 46.2%. The viability, T/C [13] was 52%, the viability, T/C [14] was 57% and the viability, T/C [15] was 52.2%. For the same compound, the viability, T/C [16] was 50.9%, the viability, T/C [17] was 54.1% and the viability, T/C [18] was 35.5%. For the same compound, the viability, T/C [19] was 39.6%, the viability, T/C [20] was 44.3% and the viability, T/C [21] was 48.4%. For the same compound, the viability, T/C [22] was 46.4%, the viability, T/C [23] was 48.8% and the viability, T/C [24] was 32.9%. The viability, T/C [25] was 37.7%, the viability, T/C [26] was 41.1% and the viability, T/C [27] was 42%. It also gave a viability, T/C [28] of 43.5%, a viability, T/C [29] of 39.9% and a viability, T/C [30] of 31.5%. For the same compound, the viability, T/C [31] was 0.24%, the viability, T/C [32] was 8.78% and the viability, T/C [33] was 32.2%. It also gave a viability, T/C [34] of 23%, a viability, T/C [35] of 1.78% and a viability, T/C [36] of 1.16%.

In the case of CC[C@@]1(O)C(=O)OCc2c1cc1n(c2=O)Cc2cc3c(CN(C)C)c(O)ccc3nc2-1 + Cc1cnc(CNC(=O)c2c(=O)c3ccc(N4CCCN(C)CC4)nc3n3c2sc2ccccc23)cn1, the IC50 (second compound 0.0316 µM) is reported as 26.4 nM, the IC50 (second compound 0.1 µM) is reported as 18.7 nM and the IC50 (second compound 0.316 µM) is reported as 14.7 nM. It also gave an IC50 (second compound 1 µM) of under 0.999 nM, an IC50 (second compound 3.16 µM) of under 0.999 nM and an IC50 (second compound 10 µM) of under 0.999 nM. The viability, T/C (second compound 0.0316 µM, first compound 0.000999 µM) was 90.4%, the viability, T/C (second compound 0.0316 µM, first compound 0.00316 µM) was 71.8% and the viability, T/C (second compound 0.0316 µM, first compound 0.00999 µM) was 77.7%. It also gave a viability, T/C [1] of 44.9%, a viability, T/C (second compound 0.0316 µM, first compound 0.0999 µM) of 36.1% and a viability, T/C [3] of 40.4%. The viability, T/C (second compound 0.1 µM, first compound 0.000999 µM) was 60.9%, the viability, T/C (second compound 0.1 µM, first compound 0.00316 µM) was 66.8% and the viability, T/C (second compound 0.1 µM, first compound 0.00999 µM) was 56.8%. It also gave a viability, T/C [7] of 43.5%, a viability, T/C (second compound 0.1 µM, first compound 0.0999 µM) of 44.7% and a viability, T/C [9] of 44.6%. It also gave a viability, T/C (second compound 0.316 µM, first compound 0.000999 µM) of 48.5%, a viability, T/C (second compound 0.316 µM, first compound 0.00316 µM) of 58.3% and a viability, T/C (second compound 0.316 µM, first compound 0.00999 µM) of 55.1%. It also gave a viability, T/C [13] of 38.9%, a viability, T/C (second compound 0.316 µM, first compound 0.0999 µM) of 42% and a viability, T/C [15] of 45.1%. For the same compound, the viability, T/C (second compound 1 µM, first compound 0.000999 µM) was 38.5%, the viability, T/C (second compound 1 µM, first compound 0.00316 µM) was 44.6% and the viability, T/C (second compound 1 µM, first compound 0.00999 µM) was 45.5%. For the same compound, the viability, T/C [19] was 41.5%, the viability, T/C (second compound 1 µM, first compound 0.0999 µM) was 37.4% and the viability, T/C [21] was 39.3%. For the same compound, the viability, T/C (second compound 3.16 µM, first compound 0.000999 µM) was 38.5%, the viability, T/C (second compound 3.16 µM, first compound 0.00316 µM) was 38% and the viability, T/C (second compound 3.16 µM, first compound 0.00999 µM) was 40.4%. For the same compound, the viability, T/C [25] was 37.1%, the viability, T/C (second compound 3.16 µM, first compound 0.0999 µM) was 36.3% and the viability, T/C [27] was 35.1%. For the same compound, the viability, T/C (second compound 10 µM, first compound 0.000999 µM) was 0.4%, the viability, T/C (second compound 10 µM, first compound 0.00316 µM) was 11.1% and the viability, T/C (second compound 10 µM, first compound 0.00999 µM) was 9.79%. For the same compound, the viability, T/C [31] was 11.4%, the viability, T/C (second compound 10 µM, first compound 0.0999 µM) was 2.25% and the viability, T/C [33] was 2.23%.

O=C(NO)c1cnc(N2CCN(S(=O)(=O)c3ccc4ccccc4c3)CC2)nc1 + Cc1cnc(CNC(=O)c2c(=O)c3ccc(N4CCCN(C)CC4)nc3n3c2sc2ccccc23)cn1 showed an IC50 (second compound 0.0316 µM) of 124 nM, an IC50 (second compound 0.1 µM) of 184 nM and an IC50 (second compound 0.316 µM) of 121 nM. The IC50 (second compound 1 µM) was under 31.6 nM, the IC50 (second compound 3.16 µM) was under 31.6 nM and the IC50 (second compound 10 µM) was under 31.6 nM. The viability, T/C [1] was 90.1%, the viability, T/C [2] was 47.7% and the viability, T/C [3] was 42.7%. It also gave a viability, T/C [4] of 0.16%, a viability, T/C [5] of 0.95% and a viability, T/C [6] of 3.31%. It also gave a viability, T/C [7] of 65.5%, a viability, T/C [8] of 52.9% and a viability, T/C [9] of 41.9%. It also gave a viability, T/C [10] of 0.15%, a viability, T/C [11] of 0.63% and a viability, T/C [12] of 2.26%. It also gave a viability, T/C [13] of 51.9%, a viability, T/C [14] of 54% and a viability, T/C [15] of 35.9%. The viability, T/C [16] was 2.48%, the viability, T/C [17] was 0.95% and the viability, T/C [18] was 0.63%. For the same compound, the viability, T/C [19] was 48.3%, the viability, T/C [20] was 45.7% and the viability, T/C [21] was 34%. The viability, T/C [22] was 1.85%, the viability, T/C [23] was 1.22% and the viability, T/C [24] was 0.11%. The viability, T/C [25] was 39%, the viability, T/C [26] was 37.8% and the viability, T/C [27] was 27.7%. It also gave a viability, T/C [28] of 0.11%, a viability, T/C [29] of 0.1% and a viability, T/C [30] of 0.32%. It also gave a viability, T/C [31] of 0.2%, a viability, T/C [32] of 2.04% and a viability, T/C [33] of 1.16%. It also gave a viability, T/C [34] of 0.97%, a viability, T/C [35] of 0.39% and a viability, T/C [36] of 2.62%.
